According to PMC8760230, “Translational Development of a Zr-89-Labeled Inhibitor of Prostate-specific Membrane Antigen for PET Imaging in Prostate Cancer” (Molecular Imaging and Biology, 2021):
Entries after “also recorded” stand apart in the source; their conditions may differ. Where two headings read alike, the source gives them in different places. Values belong to the compound of their own block, whether it stands above or below them.

What was measured:
LNCaP tumor xenograft = test: Small-animal PET in mice bearing an LNCaP tumor xenograft, with and without blocking by 2-PMPA; details: 2-PMPA 23 mg/kg, n=3 per group
PSMA = target: T1, PSMA (Homo sapiens, UniProt Q04609); test: Equilibrium dissociation constant Kd / Bmax, saturation binding on PSMA-positive LNCaP cells; details: for Kd: 3 h incubation, 0.25-75 nM, nonspecific binding with 2-PMPA; for Bmax (maximum achievable concentration on 10^6 tumor cells): Scatchard plots
T1 construct: host or cells: LNCaP cells
Protocol: The equilibrium dissociation constant describing the interaction of the radiolabeled ligands with the PSMA binding sites was determined in PSMA-positive LNCaP cell lines (Cell Line Service, Eppelheim, Germany). LNCaP cells were seeded at a density of 10^6 cells/well on a 6-well plate (Corning, ME, USA) and incubated under 5% CO2 at 37 °C for 48 h with medium (minimum essential medium Eagle supplemented with 2 mM L-glutamine, 0.1 mM non-essential amino acids (NEAA), 1.0 mM sodium pyruvate, 10% fetal bovine serum, 100 U/ml penicillin, and 100 µg/ml streptomycin) (Lonza, Verviers, Belgium) in a humidified incubator (Thermo Heracell 150 CO2-Incubator, MA, USA). To determine the nonspecific binding, the medium was removed from selected wells, and 1 ml of a solution of 0.1 mM of 2-(phosphonomethyl)-pentanedioic acid (2-PMPA) in fresh medium was added. […] The plates were then incubated under 5% CO2, at 37 °C for 1 h. After that, the medium was removed and the cells incubated under the same incubation conditions for 3 h with different concentrations (0.25 nM, 2.5 nM, 5 nM, 10 nM, 25 nM, 50 nM, and 75 nM) of the radiotracer under investigation in 1 ml fresh medium.
After 3 h, the cells were washed three times with 1 ml PBS, and the cells were finally lysed by adding 1 ml of 1 M NaOH and incubating them for 10 min at room temperature. All samples were measured with a gamma counter (Nuklear Medizintechnik Dresden Isomed 100, Dresden, Germany) and were decay-corrected. The equilibrium dissociation constant (Kd) and the maximum density of receptors (Bmax) were calculated by non-linear regression using GraphPad Prism 8.0.2 (GraphPad Software, San Diego, USA).

LNCaP cells [1] = test: Cellular uptake (specific cell binding) in LNCaP cells; type: cell-based; details: n=3
Protocol: (§1) The cell binding determined in these experiments is the sum of specific and nonspecific cell binding. To determine the values for nonspecific cell binding and internalization, all experiments were additionally performed in the presence of 2-PMPA.
(§2) The plates were incubated for 1 h; after which, 0.75 pmol of the radiotracer to be examined was added to 1 ml of fresh medium. The cells were incubated for 30 min, 1, 2, 3, and 5 h. At each time point, the supernatant was removed and the cells washed with 1 ml of PBS. To dissociate the receptor-bound radioligand, the cells were washed twice with 1 ml of a 0.1 M glycine buffer solution at pH 2.8 for 5 min. The 0.1 M glycine–HCl buffer dissociated all the surface-bound complexes. The cells were then washed with 1 ml of PBS, and the internalized fraction was determined by solubilizing the cells with 1 ml of 1 M NaOH and incubating them for 10 min at room temperature. The radioactivity collected from the culture medium, 0.1 M glycine (surface-bound), and 1 M NaOH (internalized fraction) was measured in a gamma counter and decay-corrected. Cell binding was calculated from the surface-bound (0.1 M glycine) and the internalized fraction (1 M NaOH). The internalized fraction was expressed as a percentage of cell binding (internalization to cell-bound radioactivity ratio). All cell uptake experiments were run in triplicate.

LNCaP cells [2] = test: Internalization in LNCaP cells; type: cell-based; details: n=3
Protocol: as §1, §2

prostate cancer relapse = test: First-in-human PET/CT scan in a patient with biochemical recurrence of prostate cancer; details: 2 h p.i., 343 MBq
Protocol: The patient had given their written informed consent for PET imaging and the scientific evaluation of their data. All procedures were performed in accordance with the Institutional Review Board and the regulations of the regional authorities in Cologne. The kidney dose was estimated on the basis of two PET scans. The following assumptions were made for the estimation: Between time 0 (injection) and the first measuring point, the time-activity-curve follows a constant progression. All measuring points were integrated numerically using trapezoidal approximation. From the last measuring point to infinity, a mono-exponential function was fitted and integrated. As the effective half-life could not be accurately determined from two measurement points, the physical half-life of Zr-89 was used instead.

LNCaP tumor xenografts = details: for Tumor/blood ratio / Tumor/kidneys ratio / Tumor/liver ratio / Tumor/muscle ratio: LNCaP xenograft mice; for Biodistribution Blood / Biodistribution Bone / Biodistribution Heart / Biodistribution Intestine / Biodistribution Kidneys / Biodistribution LNCAP-tumor / Biodistribution Lung / Biodistribution Muscle / Biodistribution Prostate / Biodistribution Spleen / Biodistribution Thyroid / Biodistribution Liver: i.v. 30 pmol, n=5

T1 sequence (Q04609 whole entry): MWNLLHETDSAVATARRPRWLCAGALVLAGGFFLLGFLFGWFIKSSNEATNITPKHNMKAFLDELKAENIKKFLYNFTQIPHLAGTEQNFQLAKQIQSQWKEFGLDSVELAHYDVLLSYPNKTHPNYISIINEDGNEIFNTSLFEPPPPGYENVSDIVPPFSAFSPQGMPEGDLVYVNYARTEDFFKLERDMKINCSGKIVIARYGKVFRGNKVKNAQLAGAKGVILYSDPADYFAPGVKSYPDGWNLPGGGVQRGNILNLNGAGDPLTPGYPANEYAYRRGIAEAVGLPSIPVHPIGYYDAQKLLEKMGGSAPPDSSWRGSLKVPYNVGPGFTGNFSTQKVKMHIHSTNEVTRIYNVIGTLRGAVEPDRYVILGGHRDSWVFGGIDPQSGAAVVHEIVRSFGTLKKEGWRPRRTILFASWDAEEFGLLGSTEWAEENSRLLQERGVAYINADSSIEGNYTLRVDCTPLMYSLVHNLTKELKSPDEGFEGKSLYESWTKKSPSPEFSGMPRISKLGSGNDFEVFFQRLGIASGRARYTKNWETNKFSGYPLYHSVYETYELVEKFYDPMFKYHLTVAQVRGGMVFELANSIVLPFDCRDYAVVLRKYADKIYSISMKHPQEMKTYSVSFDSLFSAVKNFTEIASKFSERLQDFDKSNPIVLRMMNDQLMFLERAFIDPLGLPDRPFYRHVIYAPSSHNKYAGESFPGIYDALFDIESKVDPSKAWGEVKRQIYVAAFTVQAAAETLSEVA

SMILES: O=C(O)CCC(CP(=O)(O)O)C(=O)O (stereo not shown) [2-PMPA, 2-(phosphonomethyl)-pentanedioic acid]
Effect of blocking on accumulation of [^89Zr]Zr-PSMA-DFO radioactivity in the liver (LNCaP tumor xenograft; 1 h, 21 h and 48 h): significantly increased; also recorded: radioactivity accumulated in the liver
Effect of blocking on accumulation of [^89Zr]Zr-PSMA-DFO radioactivity in the kidneys (LNCaP tumor xenograft; significant after 1 h): significantly reduced
Effect of blocking on tumor accumulation of [^89Zr]Zr-PSMA-DFO (LNCaP tumor xenograft; significant after 1 h): strongly reduced; also recorded: markedly reduced

SMILES: CC(=O)N1CCCCCNC(=O)CCC(=O)N2CCCCCNC(=O)CCC(=O)N(CCCCCNC(=O)CCC(=O)NCC3CCC(C(=O)NC(Cc4ccc5ccccc5c4)C(=O)NCCCCC(NC(=O)NC(CCC(=O)O)C(=O)O)C(=O)O)CC3)[O][Zr+]([O]1)[O]2 (stereo not shown) [[^89Zr]Zr-PSMA-DFO, [^89Zr]Zr-N-sucDf-AMCHA-2Nal-EuK]
Kd (PSMA): 4.97 ± 0.57 nM

Kd (PSMA): 5.07 ± 0.45 nM
Bmax (maximum achievable concentration on 10^6 tumor cells) (PSMA): 2702 ± 61 fmol/10^6 cells
SUVmax left prostate lobe (prostate cancer relapse): 4.63
SUVmax right prostate lobe (prostate cancer relapse): 5.37
Tumor/blood ratio (LNCaP tumor xenografts; 2 h p.i.): 142 ± 24
Tumor/kidneys ratio (LNCaP tumor xenografts; 2 h p.i.): 0.74 ± 0.08
Tumor/liver ratio (LNCaP tumor xenografts; 2 h p.i.): 4.7 ± 1.2
Tumor/muscle ratio (LNCaP tumor xenografts; 2 h p.i.): 282 ± 71
Biodistribution Blood (LNCaP tumor xenografts; 2 h p.i.): 0.15 ± 0.04 %ID/g
Biodistribution Bone (LNCaP tumor xenografts; 2 h p.i.): 0.18 ± 0.03 %ID/g
Biodistribution Heart (LNCaP tumor xenografts; 2 h p.i.): 0.12 ± 0.02 %ID/g
Biodistribution Intestine (LNCaP tumor xenografts; 2 h p.i.): 0.89 ± 0.18 %ID/g
Biodistribution Kidneys (LNCaP tumor xenografts; 2 h p.i.): 27.2 ± 2.6 %ID/g
Biodistribution LNCAP-tumor (LNCaP tumor xenografts; 2 h p.i.): 20.2 ± 2.4 %ID/g
Biodistribution Lung (LNCaP tumor xenografts; 2 h p.i.): 0.18 ± 0.01 %ID/g
Biodistribution Muscle (LNCaP tumor xenografts; 2 h p.i.): 0.07 ± 0.02 %ID/g
Biodistribution Prostate (LNCaP tumor xenografts; 2 h p.i.): 0.22 ± 0.03 %ID/g
Biodistribution Spleen (LNCaP tumor xenografts; 2 h p.i.): 2.15 ± 0.45 %ID/g
Biodistribution Thyroid (LNCaP tumor xenografts; 2 h p.i.): 0.19 ± 0.02 %ID/g
Tumor/liver ratio (LNCaP tumor xenografts; 4 h p.i.): 5.7 ± 0.7
Biodistribution Blood (LNCaP tumor xenografts; 4 h p.i.): 0.12 ± 0.03 %ID/g
Biodistribution Bone (LNCaP tumor xenografts; 4 h p.i.): 0.20 ± 0.03 %ID/g
Biodistribution Heart (LNCaP tumor xenografts; 4 h p.i.): 0.10 ± 0.02 %ID/g
Biodistribution Intestine (LNCaP tumor xenografts; 4 h p.i.): 1.53 ± 0.31 %ID/g
Biodistribution Kidneys (LNCaP tumor xenografts; 4 h p.i.): 26.0 ± 3.5 %ID/g
Biodistribution LNCAP-tumor (LNCaP tumor xenografts; 4 h p.i.): 21.3 ± 1.5 %ID/g
Biodistribution Liver (LNCaP tumor xenografts; 4 h p.i.): 3.75 ± 0.50 %ID/g
Biodistribution Lung (LNCaP tumor xenografts; 4 h p.i.): 0.18 ± 0.04 %ID/g
Biodistribution Muscle (LNCaP tumor xenografts; 4 h p.i.): 0.19 ± 0.03 %ID/g
Biodistribution Prostate (LNCaP tumor xenografts; 4 h p.i.): 0.60 ± 0.16 %ID/g
Biodistribution Spleen (LNCaP tumor xenografts; 4 h p.i.): 1.57 ± 0.22 %ID/g
Biodistribution Thyroid (LNCaP tumor xenografts; 4 h p.i.): 0.20 ± 0.02 %ID/g
SMILES: COc1nc([18F])ccc1C(=O)NCCCCC(NC(=O)NC(CCC(=O)O)C(=O)O)C(=O)O (stereo not shown) [[^18F]F-JK-PSMA-7]
Specific binding in LNCaP cells as percentage of total activity (LNCaP cells [1]; 0.5 h): 23.8±0.6 %
Specific binding in LNCaP cells as percentage of total activity (LNCaP cells [1]; 1 h): 32.6±0.4 %
Specific binding in LNCaP cells as percentage of total activity (LNCaP cells [1]; 2 h): 38.8±1.3 %
Specific binding in LNCaP cells as percentage of total activity (LNCaP cells [1]; 3 h): 45.2±1.9 %
Specific binding in LNCaP cells as percentage of total activity (LNCaP cells [1]; 5 h): 45.8±0.4 %
Specific internalized activity as percentage of specific cell-bound activity (LNCaP cells [2]; 0.5 h): 19.6±1.3 %
Specific internalized activity as percentage of specific cell-bound activity (LNCaP cells [2]; 1 h): 33.9±1.6 %
Specific internalized activity as percentage of specific cell-bound activity (LNCaP cells [2]; 2 h): 44.3±2.5%
Specific internalized activity as percentage of specific cell-bound activity (LNCaP cells [2]; 3 h): 46.0±2.2%
Specific internalized activity as percentage of specific cell-bound activity (LNCaP cells [2]; 5 h): 48.6±0.9 %

Kd (PSMA): 5.15 ± 0.6 nM
Bmax (maximum achievable concentration on 10^6 tumor cells) (PSMA): 1746 ± 53 fmol/10^6 cells
Tumor/blood ratio (LNCaP tumor xenografts; 2 h p.i.): 15 ± 3
Tumor/kidneys ratio (LNCaP tumor xenografts; 2 h p.i.): 0.09 ± 0.02
Tumor/liver ratio (LNCaP tumor xenografts; 2 h p.i.): 6.2 ± 1.0
Tumor/muscle ratio (LNCaP tumor xenografts; 2 h p.i.): 37 ± 8
Biodistribution Blood (LNCaP tumor xenografts; 2 h p.i.): 1.34 ± 0.20 %ID/g
Biodistribution Bone (LNCaP tumor xenografts; 2 h p.i.): 1.19 ± 0.31 %ID/g
Biodistribution Heart (LNCaP tumor xenografts; 2 h p.i.): 1.10 ± 0.36 %ID/g
Biodistribution Intestine (LNCaP tumor xenografts; 2 h p.i.): 1.50 ± 0.59 %ID/g
Biodistribution Kidneys (LNCaP tumor xenografts; 2 h p.i.): 231 ± 41 %ID/g
Biodistribution LNCAP-tumor (LNCaP tumor xenografts; 2 h p.i.): 19.4 ± 2.4 %ID/g
Biodistribution Liver (LNCaP tumor xenografts; 2 h p.i.): 3.17 ± 0.18 %ID/g
Biodistribution Lung (LNCaP tumor xenografts; 2 h p.i.): 3.27 ± 1.03 %ID/g
Biodistribution Muscle (LNCaP tumor xenografts; 2 h p.i.): 0.54 ± 0.15 %ID/g
Biodistribution Prostate (LNCaP tumor xenografts; 2 h p.i.): 4.09 ± 1.15 %ID/g
Biodistribution Spleen (LNCaP tumor xenografts; 2 h p.i.): 40.9 ± 9.3 %ID/g
Biodistribution Thyroid (LNCaP tumor xenografts; 2 h p.i.): 2.13 ± 0.27 %ID/g
Tumor/kidneys ratio (LNCaP tumor xenografts; 4 h p.i.): 0.10 ± 0.05
Tumor/liver ratio (LNCaP tumor xenografts; 4 h p.i.): 34.6 ± 6.6
Biodistribution Blood (LNCaP tumor xenografts; 4 h p.i.): 0.21 ± 0.03 %ID/g
Biodistribution Bone (LNCaP tumor xenografts; 4 h p.i.): 0.50 ± 0.19 %ID/g
Biodistribution Heart (LNCaP tumor xenografts; 4 h p.i.): 1.35 ± 0.70 %ID/g
Biodistribution Intestine (LNCaP tumor xenografts; 4 h p.i.): 0.65 ± 0.30 %ID/g
Biodistribution Kidneys (LNCaP tumor xenografts; 4 h p.i.): 226 ± 25 %ID/g
Biodistribution LNCAP-tumor (LNCaP tumor xenografts; 4 h p.i.): 23.2 ± 10.6 %ID/g
Biodistribution Liver (LNCaP tumor xenografts; 4 h p.i.): 0.65 ± 0.21 %ID/g
Biodistribution Lung (LNCaP tumor xenografts; 4 h p.i.): 1.23 ± 0.13 %ID/g
Biodistribution Muscle (LNCaP tumor xenografts; 4 h p.i.): 0.42 ± 0.11 %ID/g
Biodistribution Prostate (LNCaP tumor xenografts; 4 h p.i.): 1.67 ± 0.37 %ID/g
Biodistribution Spleen (LNCaP tumor xenografts; 4 h p.i.): 62.5 ± 21.5 %ID/g
Biodistribution Thyroid (LNCaP tumor xenografts; 4 h p.i.): 4.44 ± 2.9 %ID/g
SMILES: O=C([O-])CN(CCN(CC(=O)[O-])Cc1cc(CCC(=O)NCCCCCC(=O)NCCCC[C@H](NC(=O)N[C@@H](CCC(=O)O)C(=O)O)C(=O)O)ccc1[O-])Cc1cc(CCC(=O)O)ccc1[O-].[68Ga+3].[OH3+] [[^68Ga]Ga-PSMA-11]
Specific binding in LNCaP cells as percentage of total activity (LNCaP cells [1]; 0.5 h): 27.7±0.7%
Specific binding in LNCaP cells as percentage of total activity (LNCaP cells [1]; 1 h): 35.3±3.1 %
Specific binding in LNCaP cells as percentage of total activity (LNCaP cells [1]; 2 h): 42.0±1.2 %
Specific binding in LNCaP cells as percentage of total activity (LNCaP cells [1]; 3 h): 46.3±2.1%
Specific binding in LNCaP cells as percentage of total activity (LNCaP cells [1]; 5 h): 48.3±1.2%
Specific internalized activity as percentage of specific cell-bound activity (LNCaP cells [2]; 0.5 h): 28.9±0.7%
Specific internalized activity as percentage of specific cell-bound activity (LNCaP cells [2]; 1 h): 39.7±2.0%
Specific internalized activity as percentage of specific cell-bound activity (LNCaP cells [2]; 2 h): 48.3±2.5%
Specific internalized activity as percentage of specific cell-bound activity (LNCaP cells [2]; 3 h): 50.5±3.4%
Specific internalized activity as percentage of specific cell-bound activity (LNCaP cells [2]; 5 h): 56.8±2.2 %
